Source: patent publication US4477446A, “1-Benzazepines and their pharmaceutical uses” (USV Pharmaceutical Corporation, priority 1983, dated 1984)
Where two headings read alike, the source gives them in different places.

Assays:
[1] = biological target: T1, binding of IgE to mast cells (cellular receptor) (Rattus norvegicus, UniProt P12371); assay: Binding of IgE to mast cells (125I-labelled rat IgE, mixed peritoneal cells)
T1 construct: endogenous in cells; host or cells: mixed peritoneal cells (containing mast cells)
T1 sequence (P12371 24-245): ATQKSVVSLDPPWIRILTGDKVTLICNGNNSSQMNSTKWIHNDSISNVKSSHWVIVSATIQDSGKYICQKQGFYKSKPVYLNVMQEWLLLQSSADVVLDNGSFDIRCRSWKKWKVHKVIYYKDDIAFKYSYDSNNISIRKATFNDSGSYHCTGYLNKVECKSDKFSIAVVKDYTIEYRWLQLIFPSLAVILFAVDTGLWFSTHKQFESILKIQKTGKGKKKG
T1 sequence (P13386 1-243 partner): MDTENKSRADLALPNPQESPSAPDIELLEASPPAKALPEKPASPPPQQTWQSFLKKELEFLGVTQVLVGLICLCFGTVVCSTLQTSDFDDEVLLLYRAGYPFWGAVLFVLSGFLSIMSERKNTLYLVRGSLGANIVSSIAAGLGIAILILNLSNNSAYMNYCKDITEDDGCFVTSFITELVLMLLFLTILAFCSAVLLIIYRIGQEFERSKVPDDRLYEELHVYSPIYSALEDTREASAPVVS
T1 sequence (P20411 19-86 partner): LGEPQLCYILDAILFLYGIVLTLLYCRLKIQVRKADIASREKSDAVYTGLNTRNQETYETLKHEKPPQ
Procedure: The test used to determine this activity was the method of S. M. Coutts et al. (Journal of Pharm. Sci., 68:353 (1979)). Briefly described, the method is as follows:
IgE, isolated from the ascitic fluid of a transplantable rat IgE immunocytoma, was labeled with iodine-125 under mild conditions employing the Bolton-Hunter reagent. The antibody was incubated with mixed peritoneal cells at 37° C., and the cell-bound IgE was separated from unbound label by sedimentation through an 8% sucrose-polymer solution in microsediment tubes. Conditions for the interaction of 3nM IgE with 3×10^5 mast cells in 150 μl were: incubation time, 2 hrs; pH, 6.5-7.0; and ionic strength, equivalent to 150 mM NaCl. Mixed peritoneal cells bind IgE with an affinity equal to that of purified mast cells.

[2] = test system: rat peritoneal mast cells; assay: Inhibition of histamine release from rat mast cells; type: cell-based; conditions: for IC50: Rattus norvegicus, Mast cell, read-out: I50 of antigen-induced secretion of histamine
Procedure: The compound of the present invention was also tested for inhibition of histamine release from rat mast cells by the method of Khandwala et al., Int. Archs Allergy appl. Immun. 69:159-168 (1982). Rat peritoneal mast cells contain receptors for IgE antibodies as well as granules which contain preformed mediators of anaphylaxis. Immunologically stimulated secretion of histamine from these cells has long been used as a model for testing antiallergic drugs. The standard asthma prophylactic drug disodium cromoglycate is a potent inhibitor in this model. A brief summary of the method is as follows:
Freshly harvested rat peritoneal mast cells were passively sensitized in vitro with rat anti-ovalbumin serum. Spontaneous histamine release or SR (in the absence of antigen) and anaphylactically-induced histamine release or AIR (in the presence of antigen) were measured after 15 minutes of incubation. Both the histamine released into the incubation medium and the residual histamine extracted from rat mast cells were measured fluorometrically.

human basophils = assay: Inhibition of histamine release from human basophils; type: cell-based; conditions: 5 minutes preincubation before anti-human IgE challenge; read-out: calculated concentration at which 50% of anti-IgE-induced histamine release was inhibited
Procedure: 1H-benz(f)azepine-2,5-dione was also tested by a method which measures inhibition of histamine release from human basophils. The basophil is a circulating granulocyte that contains preformed mediators of anaphylaxis. These mediators are secreted after immunological stimulation of the IgE-Fc receptor system. The human basophil has thus been employed as a model cell system for asthma and allergy. The effect of the compound upon anti-IgE-medicated secretion of histamine from human basophils prepared from venous blood was carried out according to Siraganian, R. and Brodsky, M. J., Automated Histamine Analysis for in vitro testing, J. Allergy Clin. Immunol. 57:525-540 (1976). The summary of the method follows:
A fraction containing basophils was isolated by allowing freshly drawn human blood to sediment in the presence of dextran, saline and ethylenediamine tetraacetate. […] Both the histamine secreted after the challenge and that remaining in the cells were determined by an automated fluorometric assay. The influence of 1H-benz(f)azepine-2,5-dione on anti-IgE-induced release of histamine (AIR) was assessed by preincubation of the cells with the test compound for 5 minutes before immunological challenge. […] The results were expressed as the percent inhibition of AIR or as I50 value.

guinea pig lung slices = assay: Inhibition of histamine release from guinea pig lung slices; type: cell-based; conditions: Cavia porcellus; passively sensitized lung slices, 5 minutes preincubation; read-out: concentration at which 50% of antigen-induced histamine release was inhibited (I50)
Text: 1H-benz(f)azepine-2,5-dione was also found to inhibit histamine-release from guinea pig lung slices over a wide concentration range. Immunologically mediated secretion of histamine from guinea pig lung slices is mediated through the IgG1 class of antibodies, as opposed to the IgE-class of antibodies which control secretion from rat mast cells. The affect of the compound of the present invention on antigen-induced release of histamine from passively sensitized guinea pig lung slices was determined according to the procedure of Khandwala et al., Int. Archs. Allergy Appl. Immunol. 59:34-44(1979). A brief description of the method follows:
Guinea pig lung slices were passively sensitized in vitro with guinea pig anti-ovalbumin serum. […] Both the histamine released into the incubation media and the residual histamine extracted from the lung slices were measured fluorometrically. Both spontaneous and antigen-induced histamine releases were expressed as % of total extractable histamine in the lung slices. Net antigen-induced histamine release (AIR) was obtained by subtracting the spontaneous release from that in the presence of the antigen. The effect of the test compound on both SR and AIR was determined following 5 minutes preincubation of sensitized lung slices with the test compound. The concentration of the test compound required for 50% inhibition of AIR (I50) was determined.

[3] = 0 h, compound added simultaneously (at 0 minutes) with antigen
[4] = cells and drug preincubated for 5 minutes before adding antigen

Row | Compound | IC50 ([1]; 3 nM IgE, 3×10^5 mast cells, 2 hrs, 37° C., read-out: concentration at which 50% inhibition of IgE binding was observed (I50)) [µM] | inhibition at 30 µM ([1]; 30 μM, average of two experiments) [%] | apparent affinity constant KA of IgE for its cellular receptor ([1]; in presence of 30 μM test compound, control KA 4.4×10^8 M^-1, Scatchard analysis) [M⁻¹] | IC50 [2, 3] [µM] | IC50 [2, 4] [µM] | IC50 (human basophils) [µM] | IC50 (guinea pig lung slices) [µM] | I50 of antigen-induced secretion of histamine [2, 4]
1 | O=c1ccc(=O)c2ccccc2[nH]1 [1H-benz(f)azepine-2,5-dione, 1H-Benz(f)azepine-2,5-dione] | 12 | 70 | 9.4e+07 | 1.8 | 5 | 2 | 20 | –
2 | O=C(O)c1cc(=O)c2c(OCC(O)COc3cccc4oc(C(=O)O)cc(=O)c34)cccc2o1 [disodium cromoglycate, reference compound] | – | – | – | 3 | – | – | – | inactive
